Experiments:
[1] = test system: Cop-1-reactive T cells; assay: ELISA of BDNF secreted by Cop-1-reactive T cells; assay type: cell-based, Lewis rats; settings: 48 h stimulation with antigen
Procedure: (iv) T-cell lines. Ten days after Cop-1 immunization, T-cell lines were generated from draining lymph node cells obtained from Lewis rats immunized with Cop-1 emulsified in CFA. The lymph nodes were surgically removed, dissociated, washed, and then activated with the antigen (10 μg/ml) in stimulation medium as previously reported (Kipnis et al., 2000). The T-cells lines were expanded by repeated stimulation and propagation.
(v) Enzyme-linked immunosorbent assay. T cell-reactive Cop-1 cells were grown for 1 week in a propagation medium, then washed with PBS and re-suspended in stimulation medium. The cultured T cells (0.5×10^6 cells/mL) were then incubated, in the presence of irradiated thymocytes (10^7 cells/mL), with concanavalin A (Con A; 1.25 μg/mL), myelin basic protein (MRP; 10 μg/ml), Cop-1 (10 μg/mL), ovalbumin (OVA; 10 μg/mL), or no antigen, in stimulation medium. After 48 h the cells were centrifaged and their supernatants were collected and sampled. Concentrations of brain-derived neurotrophic factor (BDNF) in the samples were determined with a sensitive sandwich ELISA. In brief 96-well flat-bottomed plates were coated with a chicken anti-human BDNF antibody (Promega, Madison, Wis.) in 0.025 M NaHCO3 and 0.025 M Na2CO3 (pH 8.2). Recombinant human BDNF (used as a standard; Research Diagnostics, Flanders, N.J.) was used in serial dilutions in blocking solution containing 3% bovine serum albumin, 0.05% polyoxyethylene-sorbitan monolaurate (Tween-20), and 1% fetal calf serum in PBS (pH 8.2). Bound BDNF was detected by incubating the plates with a mouse anti-human BDNF antibody (Research Diagnostics) and then with peroxidase-conjugated goat anti-mouse IgG (Jackson ImmunoResearch, West Grove, Pa.) in blocking solution. The plates were developed using a 3,3′,5,5′-tetramethylbenzidine liquid substrate system (Sigma-Aldrich). The reaction was stopped by adding 1M H3PO4, and the optical density was determined at 450 nm. Results for each experiment were calculated as the amount of secreted BDNF per 1 mL of sample, after subtraction of background levels of the irradiated thymocytes incubated with the stimulation medium.
Cop-1-reactive T cells were cultured for 48 h with Cop-1, MBP, ovalbumin, or concanavalin A in stimulation medium. T cell supernatants were collected and subjected to sandwich ELISA. […] Values are mean values (pg/ml) +/− SE (from three independent experiments) of the amounts of BDNF secreted by Cop-1-specific T cells in response to stimulation by various antigens.

[2] = test system: mice injected with a psychotomimetic drug; assay: Social behavior test; assay type: in vivo, mouse; settings: vaccinated mice vs controls; data not shown
[3] = test system: male C57B1/6J mice exposed to the odor of a predator; assay: Behavioral adaptation to psychological stress (predator odor; EPM and ASR cut-off behavioral criteria); assay type: in vivo, mouse; settings: single 10-min exposure to odor of a predator, PBS/CFA control 40.8%, P<0.05
Procedure: (iii) Immunization. Each animal was injected with a total of 100 μg of Cop-1 emulsified in an equal volume of complete Freund's adjuvant (CPA) containing 5 mg/ml of Mycobacteria H37 RA (Difco). The emulsion, in a total volume of 0.1 mL, was injected into the flank 1 week before the mouse was first injected with a psychotomimetic drug. Control mice were injected with an equal volume of phosphate-buffered saline (PBS) emulsified in CFA.
(ix) Induction of psychological stress. Mice in the experimental groups were exposed for 10 minutes to thoroughly soiled eat litter (used by a cat for 2 days and sifted for faeces). Control (WT) mice were exposed for the same time to unused litter. […]
Behavior on the EPM was recorded using EthoVision programs (Noldus) that recorded the location of the mouse over the 5-minute test period. […]
Five behavioral parameters were assessed: (1) time spent in the open arms; (2) time spent in the closed arms; (3) number of entries into open arms; (4) number of entries into closed arms; (5) total number of entries into all arms. Mice were recorded as having entered an open or closed arm only when all four paws had passed over the dividing line between open and closed arms. […]
(xi) Acoustic startle response (ASR). […] The ASR and pre-pulse inhibition were measured using two ventilated startle chambers (SR-LAB system, San Diego Instruments, San Diego, Calif.). […]

For Copolymer 1 [Cop-1], the “Secretion of BDNF by Cop-1-reactive T cells compared with unstimulated T cells” value [1] was “significantly increased”, the “BDNF secreted by Cop-1-reactive T cells (mean)” value ([1]; mean of three independent experiments, no antigen 400) was 1220 pg/mL and the “Communicative behavior in social behavior test” value [2] was “better communicative behavior than the controls”. For the same substance, the “Prevalence of maladaptation (behavioral changes) after predator odor” value [3] was 14.8%.

Source: US20180207249A1, “METHOD AND VACCINE COMPRISING COPOLYMER 1 FOR TREATMENT OF PSYCHIATRIC DISORDERS” (YEDA RESEARCH AND DEVELOPMENT CO. LTD., priority 2003, published 2018)
